Measured values from patent publication US4937240A, “Thienotriazolodiazepine compounds and pharmaceutical uses thereof” (Yoshitomi Pharmaceutical Industries, Ltd., priority 1988, dated 1990).

Experiments:
PAF-induced lethal shock [1] = experiment: Effect on PAF-induced lethal shock in mice (p.o.); type: in vivo; conditions: Mus musculus, male ICR mice, 80 μg/kg PAF i.v. 1 hour after oral administration, observed 24 hours
Procedure: (§1) In order to determine PAF-antagonistic activity of the compounds of the present invention, the inhibitory effects of PAF-induced lethal shock in mice were investigated by oral administration and intravenous administration.
Experiment 1: Effect on PAF-induced lethal shock in mice (p.o.)
The experiment was carried out according to the method of Young et al. described in Prostaglandins, vol. 30, p. 545 (1985). Groups of 9 to 15 male ICR mice (Charles River) weighing 25-30 g were used. 80 μg/kg of PAF (Serdary Research Lab.) solution was intravenously administered in a lateral tail vein 1 hour after the oral administration of test compound (0.1 ml/10 g). […] Results were given as ED50 (mg/kg) in Table 1.

PAF = conditions: literature; cited from earlier work
PAF-induced lethal shock [2] = experiment: Effect on PAF-induced lethal shock in mice (i.v.); type: in vivo; conditions: Mus musculus, male ICR mice, 80 μg/kg PAF i.v. 1 hour after intravenous administration, observed 24 hours
Procedure: as §1
Experiment 2: Effect on PAF-induced lethal shock in mice (i.v.)
The experiment was carried out according to the method of Young et al. as described in Experiment 1. Groups of 8 to 15 male ICR mice (Charles River) weighing 25-30 g were used. 80 μg/kg of PAF (Serdary Research Lab.) solution was intravenously administered in a lateral a tail vein 1 hour after the intravenous administration of test compound ([…]). […] Results were given as ED50 (mg/kg) in Table 2.

Row | Compound | ED50 (PAF-induced lethal shock [1]) [mg/kg] | antagonistic activity on PAF (PAF) | ED50 (PAF-induced lethal shock [2]) [mg/kg]
1 | Cc1nnc2n1-c1sc3c(c1C(c1ccccc1Cl)=NC2C)CC(CN1CCOCC1)C3 (centres unmarked) [C, 5-(2-chlorophenyl)-3,4-dihydro-7,10-dimethyl-3-morpholinomethyl-2H,7H-cyclopenta[4,5]thieno[3,2-f][1,2,4]triazolo[4,3-a][1,4]diazepine 1/2 hydrate] | 0.2 | – | –
2 | CCCN(CCC)C(=O)CCc1cc2c(s1)-n1c(C)nnc1C(C)N=C2c1ccccc1Cl (centres unmarked) [E, 3-[4-(2-chlorophenyl)-6,9-dimethyl-6H-thieno[3,2-f][1,2,4]triazolo[4,3-a][1,4]diazepin-2-yl]propionic acid N,N-dipropylamide] | 0.14 | – | –
3 | Cc1nnc2n1-c1sc3c(c1C(c1ccccc1Cl)=NC2)CC(CN1CCOCC1)C3 (centres unmarked) [STY 2108, 5-(2-chlorophenyl)-3,4-dihydro-10-methyl-3-morpholinomethyl-2H,7H-cyclopenta[4,5]thieno[3,2-f][1,2,4]triazolo[4,3-a][1,4]diazepine] | – | exhibit more potent PAF-antagonistic activity | –
4 | Cc1nnc2n1-c1sc(CCC(=O)N3CCOCC3)cc1C(c1ccccc1Cl)=NC2 [WEB 2086, 3-[4-(2-chlorophenyl)-9-methyl-6H-thieno[3,2-f][1,2,4]triazolo[4,3-a][1,4]diazepin-2-yl]propionic acid morpholide, reference compound] | 1.6 | exhibit more potent PAF-antagonistic activity | 0.125
5 | Cc1nnc2n1-c1sc(CCC(=O)N3CCOCC3)cc1C(c1ccccc1Cl)=NC2 [4-(2-chlorophenyl)-9-methyl-6H-thieno[3,2-f][1,2,4]triazolo[] [4-(2-chlorophenyl)-9-methyl-6H-thieno[3,2-f][1,2,4]triazolo[4,3-a][1,4]diazepine-2-propionic acid morpholide] | – | exhibit antagonistic activity on PAF | –
6 | Cc1nnc2n1-c1sc3c(c1C(c1ccccc1Cl)=NC2C)CC(C(=O)N1CCOCC1)C3 (centres unmarked) [B, 5-(2-chlorophenyl)-3,4-dihydro-7,10-dimethyl-3-morpholinocarbonyl-2H,7H-cyclopenta[4,5]thieno[3,2-f][1,2,4]triazolo[4,3-a][1,4]diazepine] | 0.55 | – | –
7 | Cc1nnc2n1-c1sc(CCC(=O)N3CCOCC3)cc1C(c1ccccc1Cl)=NC2C (centres unmarked) [A, 3-[4-(2-chlorophenyl)-6,9-dimethyl-6H-thieno[3,2-f][1,2,4]triazolo[4,3-a][1,4]diazepin-2-yl]propionic acid morpholide] | 0.065 | – | 0.021
8 | Cc1nnc2n1-c1sc(CCC(=O)N3CCN(CC(C)C)CC3)cc1C(c1ccccc1Cl)=NC2C (centres unmarked) [D, 3-[4-(2-chlorophenyl)-6,9-dimethyl-6H-thieno[3,2-f][1,2,4]triazolo[4,3-a][1,4]diazepin-2-yl]propionic acid 4-isobutyl-1-piperazide] | 0.3 | – | –
